Columns and labels:
[1] = Bidirectional transport assay across MRP2 KO Caco-2 monolayers; conditions: human
Method: (§1) Then, HBSS was aspirated from both sides.
(§2) For MRP2, the nonfluorescent compound CDCFDA was used as the probe substrate. […] After treatment, samples were transferred to black-walled 96-well assay plates. A standard curve of 2-fold serial dilution from 10 µM CDCF was generated. The CDCF concentration was measured based on the fluorescence in a microplate fluorescence reader (Tecan, Switzerland) set at 485 nm and 530 nm for the excitation and emission wavelengths, respectively.

[2] = Bidirectional transport assay across P-gp KO Caco-2 monolayers; conditions: human, pH 7.4
[3] = Bidirectional transport assay across P-gp/BCRP double KO Caco-2 monolayers; conditions: human, pH 7.4
Method: (§3) The medium was replaced every second day.
as §1, §2

[4] = Bidirectional transport assay across P-gp/MRP2 double KO Caco-2 monolayers; conditions: human, pH 7.4
Method: as §3, §1, §2

MDCKⅡ-MDR1 = tested on: MDCKⅡ-MDR1; set-up: method as in Agarwal et al., 2007; conditions: MDCKⅡ-MDR1 treated with P-gp inhibitors; ref Agarwal et al., 2007; cited from earlier work
[5] = Bidirectional transport assay across BCRP KO Caco-2 monolayers; conditions: human, pH 7.4
Method: as §1, §2

[6] = Bidirectional transport assay across MRP2/BCRP double KO Caco-2 monolayers; conditions: human
Method: as §1, §2

[7] = Bidirectional transport assay across Caco-2 WT monolayers; conditions: human, Caco-2, pH 7.4
Method: as §1, §2

MRP2 [8] = tested on: MRP2; set-up: method as in Bierman et al., 2010; Holmstock et al., 2018; conditions: 5 μM and 10 µM; ref Bierman et al., 2010; Holmstock et al., 2018; cited from earlier work
MRP2 [9] = tested on: MRP2; set-up: method as in Koenig et al., 2010; Swedrowska et al., 2017; conditions: 50 µM; Caco-2 cells; ref Koenig et al., 2010; Swedrowska et al., 2017; cited from earlier work

Papp B→A at 1 h, 5 μM ([1]; pH 7.4) [×10⁻⁶ cm/s]	Papp A→B at 1 h, 5 μM ([1]; pH 7.4, Papp A-to-B, Caco^MRP2−/−, 5 μM substrate, 1 h, 37°C, HBSS pH 7.4, n = 3) [×10⁻⁶ cm/s]	Papp A→B at 1 h, 5 μM [2] [×10⁻⁶ cm/s]	Papp B→A at 1 h, 5 μM [2] [×10⁻⁶ cm/s]	Papp A→B at 1 h, 5 μM [3] [×10⁻⁶ cm/s]	Papp B→A at 1 h, 5 μM [3] [×10⁻⁶ cm/s]	Papp A→B at 1 h, 5 μM [4] [×10⁻⁶ cm/s]	Papp B→A at 1 h, 5 μM [4] [×10⁻⁶ cm/s]	Papp A→B at 1 h, 5 μM [5] [×10⁻⁶ cm/s]	Papp B→A at 1 h, 5 μM [5] [×10⁻⁶ cm/s]	Papp B→A at 1 h, 5 μM ([6]; pH 7.4) [×10⁻⁶ cm/s]	Papp A→B at 1 h, 5 μM ([6]; pH 7.4, Papp A-to-B, Caco^MRP2−/−BCRP−/−, 5 μM substrate, 1 h, 37°C, HBSS pH 7.4, n = 3) [×10⁻⁶ cm/s]	Papp A→B at 1 h, 5 μM [7] [×10⁻⁶ cm/s]	Papp B→A at 1 h, 5 μM [7] [×10⁻⁶ cm/s]	SMILES	Increase of Papp (A-B) (MDCKⅡ-MDR1)	Transport activity of MRP2 (MRP2 [8])	Effect on darunavir efflux transport (MRP2 [9])
20.1 ± 2.26	~1	10.2 ± 0.27	6.59 ± 0.62	15.2 ± 1.44	10.3 ± 0.82	13.8 ± 1.01	11.5 ± 0.96	5.79 ± 0.64	18.4 ± 0.98	19 ± 3.05	~1	3.25 ± 0.59	24.5 ± 2.04	Cc1cccc(C)c1OCC(=O)N[C@@H](Cc1ccccc1)[C@@H](O)C[C@H](Cc1ccccc1)NC(=O)[C@H](C(C)C)N1CCCNC1=O [Lopinavir, lopinavir]	up to 6 folds	inhibited	
														O=C1OC(c2ccc(O)c(S(=O)(=O)O)c2)(c2ccc(O)c(S(=O)(=O)O)c2)c2c(Br)c(Br)c(Br)c(Br)c21 [bromsulphthalein]			significant suppression

Reference: PMC9649518, “Knockout of ABC transporters by CRISPR/Cas9 contributes to reliable and accurate transporter substrate identification for drug discovery” (Frontiers in Pharmacology, 2022)
